Measurements reported in article PMC7870829, “Structural basis for the biosynthesis of lovastatin” (Nature Communications, 2021).
One block for each compound: values may come before it.

Legend:
LovB = target: T1, LovB (Aspergillus terreus, UniProt Q9Y8A5); assay: cryo-EM structure; format: binding; conditions: KR domain NADPH pocket; sample with 2 mM each Mal-CoA, NADPH and SAM; pH 8.0
T1 construct: dimer; ACP and CON domains not resolved; DSS-crosslinked with LovC for cryo-EM

LovC = target: T2, LovC (Aspergillus terreus, UniProt Q9Y7D0); assay: NADPH fluorescence (Ex […] nm, Em […] nm); format: biochemical; conditions: 100 μM NADPH, 200 μM crotonoyl-CoA, 100 mM KH2PO4 pH 7.0, 2% DMSO, 25 °C
T2 construct: full-length, His-tagged (pET28_LovCcH), expressed in E. coli, without LovB
T2 sequence (Q9Y7D0 1-363): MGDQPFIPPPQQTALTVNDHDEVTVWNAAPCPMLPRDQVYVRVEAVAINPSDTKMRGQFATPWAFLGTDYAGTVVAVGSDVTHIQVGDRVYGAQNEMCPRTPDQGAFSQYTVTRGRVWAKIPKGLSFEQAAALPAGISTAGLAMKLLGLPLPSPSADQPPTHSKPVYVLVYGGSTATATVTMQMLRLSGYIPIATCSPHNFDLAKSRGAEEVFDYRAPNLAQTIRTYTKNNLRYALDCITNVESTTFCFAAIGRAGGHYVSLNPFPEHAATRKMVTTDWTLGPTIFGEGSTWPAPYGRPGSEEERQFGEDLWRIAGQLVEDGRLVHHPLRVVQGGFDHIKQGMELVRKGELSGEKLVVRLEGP

[1] = target: lovastatin nonaketide synthase (LovB), full-length, His-tagged (Aspergillus terreus) (UniProt Q9Y8A5); assay: cryo-EM structure; LovB mixed with LovC and 2 mM each of Mal-CoA, NADPH and SAM, cross-linked with DSS, SEC on Superose 6 Increase (50 mM Tricine pH 8.0, 4 mM SAM), cofactors re-added, 0.1% Tween 20; maps at 2.91 Å (LovB) and 3.60 Å (LovBC with one LovC)

T1 sequence (Q9Y8A5 whole entry, the tested form may be a part): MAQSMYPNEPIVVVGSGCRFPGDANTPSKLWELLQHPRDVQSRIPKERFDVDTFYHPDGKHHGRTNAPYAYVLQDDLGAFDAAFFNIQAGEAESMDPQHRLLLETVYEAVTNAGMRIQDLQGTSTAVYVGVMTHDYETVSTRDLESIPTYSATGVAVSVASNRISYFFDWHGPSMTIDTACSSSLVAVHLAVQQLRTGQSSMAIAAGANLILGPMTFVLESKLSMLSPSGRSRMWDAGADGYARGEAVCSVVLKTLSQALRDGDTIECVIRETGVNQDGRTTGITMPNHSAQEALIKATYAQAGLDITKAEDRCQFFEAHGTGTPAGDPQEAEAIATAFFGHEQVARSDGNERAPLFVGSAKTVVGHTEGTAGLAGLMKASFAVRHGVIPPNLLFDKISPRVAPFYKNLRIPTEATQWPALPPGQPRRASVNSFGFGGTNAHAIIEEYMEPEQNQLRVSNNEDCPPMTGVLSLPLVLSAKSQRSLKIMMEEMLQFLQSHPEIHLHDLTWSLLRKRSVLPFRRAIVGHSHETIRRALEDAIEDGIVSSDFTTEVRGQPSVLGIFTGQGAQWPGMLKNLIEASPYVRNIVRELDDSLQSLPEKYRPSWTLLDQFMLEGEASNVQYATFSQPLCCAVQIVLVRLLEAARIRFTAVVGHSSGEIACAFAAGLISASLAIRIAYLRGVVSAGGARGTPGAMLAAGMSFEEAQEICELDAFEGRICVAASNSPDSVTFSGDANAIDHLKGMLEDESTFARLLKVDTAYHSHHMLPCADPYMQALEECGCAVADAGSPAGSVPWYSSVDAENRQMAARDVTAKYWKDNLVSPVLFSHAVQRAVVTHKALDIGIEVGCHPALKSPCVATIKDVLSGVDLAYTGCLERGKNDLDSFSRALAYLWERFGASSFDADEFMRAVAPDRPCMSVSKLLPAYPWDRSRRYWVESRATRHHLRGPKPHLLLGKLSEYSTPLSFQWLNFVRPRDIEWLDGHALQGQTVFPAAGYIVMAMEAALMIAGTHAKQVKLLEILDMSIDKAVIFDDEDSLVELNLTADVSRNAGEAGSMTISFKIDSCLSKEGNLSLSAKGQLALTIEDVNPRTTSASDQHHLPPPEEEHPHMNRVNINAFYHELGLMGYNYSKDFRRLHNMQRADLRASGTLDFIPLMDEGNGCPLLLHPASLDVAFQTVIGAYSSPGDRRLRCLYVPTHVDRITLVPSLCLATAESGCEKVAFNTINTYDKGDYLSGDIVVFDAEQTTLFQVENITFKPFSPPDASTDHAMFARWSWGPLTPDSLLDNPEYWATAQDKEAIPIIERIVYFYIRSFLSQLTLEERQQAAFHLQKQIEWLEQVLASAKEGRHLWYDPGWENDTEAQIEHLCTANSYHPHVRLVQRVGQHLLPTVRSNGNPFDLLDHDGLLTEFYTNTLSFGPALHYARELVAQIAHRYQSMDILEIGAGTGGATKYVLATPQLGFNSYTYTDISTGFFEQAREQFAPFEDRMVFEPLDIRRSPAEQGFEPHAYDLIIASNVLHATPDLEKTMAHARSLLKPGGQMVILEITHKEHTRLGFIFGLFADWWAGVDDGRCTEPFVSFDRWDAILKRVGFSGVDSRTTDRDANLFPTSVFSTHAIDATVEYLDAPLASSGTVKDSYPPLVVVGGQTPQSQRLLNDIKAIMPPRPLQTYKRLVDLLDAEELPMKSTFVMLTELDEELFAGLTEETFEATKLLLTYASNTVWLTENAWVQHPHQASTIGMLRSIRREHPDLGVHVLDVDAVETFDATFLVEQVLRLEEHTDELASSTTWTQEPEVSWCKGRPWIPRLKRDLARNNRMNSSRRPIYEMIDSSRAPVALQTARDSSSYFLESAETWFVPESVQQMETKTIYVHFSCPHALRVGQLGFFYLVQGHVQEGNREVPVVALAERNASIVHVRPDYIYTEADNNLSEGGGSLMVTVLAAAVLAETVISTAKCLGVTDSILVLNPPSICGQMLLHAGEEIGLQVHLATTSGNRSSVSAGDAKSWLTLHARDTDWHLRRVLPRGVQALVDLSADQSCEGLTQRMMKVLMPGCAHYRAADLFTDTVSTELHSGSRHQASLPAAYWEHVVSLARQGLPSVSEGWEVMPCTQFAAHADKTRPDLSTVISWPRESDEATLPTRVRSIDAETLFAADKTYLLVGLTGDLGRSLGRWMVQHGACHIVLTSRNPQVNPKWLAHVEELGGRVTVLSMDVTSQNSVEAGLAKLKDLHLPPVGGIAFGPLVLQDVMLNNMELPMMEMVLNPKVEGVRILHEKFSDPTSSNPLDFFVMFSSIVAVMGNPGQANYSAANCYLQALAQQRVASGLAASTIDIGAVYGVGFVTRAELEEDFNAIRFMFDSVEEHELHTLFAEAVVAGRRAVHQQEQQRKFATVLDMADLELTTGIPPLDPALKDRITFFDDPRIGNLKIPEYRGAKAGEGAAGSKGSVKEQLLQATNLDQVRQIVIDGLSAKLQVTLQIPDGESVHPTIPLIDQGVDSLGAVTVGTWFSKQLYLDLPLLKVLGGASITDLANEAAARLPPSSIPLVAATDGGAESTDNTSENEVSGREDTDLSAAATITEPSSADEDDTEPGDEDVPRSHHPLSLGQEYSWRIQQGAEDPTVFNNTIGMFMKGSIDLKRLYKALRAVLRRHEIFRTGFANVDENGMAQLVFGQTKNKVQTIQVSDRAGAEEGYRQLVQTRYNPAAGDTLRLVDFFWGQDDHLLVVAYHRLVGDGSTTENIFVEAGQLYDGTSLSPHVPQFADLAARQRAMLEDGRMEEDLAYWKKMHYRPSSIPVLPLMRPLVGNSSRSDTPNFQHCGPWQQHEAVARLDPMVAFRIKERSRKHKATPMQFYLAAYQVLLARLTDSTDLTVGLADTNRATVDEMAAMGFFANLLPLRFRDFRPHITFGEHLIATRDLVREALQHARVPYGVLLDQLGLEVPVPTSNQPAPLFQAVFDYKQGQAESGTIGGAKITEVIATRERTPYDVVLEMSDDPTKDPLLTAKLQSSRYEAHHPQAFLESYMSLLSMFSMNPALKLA

Compound: NC(=O)c1ccc[n+]([C@@H]2O[C@H](COP(=O)(O)OP(=O)(O)OC[C@H]3O[C@@H](n4cnc5c(N)ncnc54)[C@H](OP(=O)(O)O)[C@@H]3O)[C@@H](O)[C@H]2O)c1 [NADP+]
cryo-EM structure (LovB): The NADPH binding pocket with bound NADP^+ nicotinamide ring can be clearly identified

Compound: NC(=O)C1=CN([C@@H]2O[C@H](COP(=O)(O)OP(=O)(O)OC[C@H]3O[C@@H](n4cnc5c(N)ncnc54)[C@H](OP(=O)(O)O)[C@@H]3O)[C@@H](O)[C@H]2O)C=CC1 [NADPH]
NADPH fluorescence (Ex 340 nm, Em 455 nm) (LovC): NADPH was oxidized in the presence of substrate over time

stoichiometry N [1]: 2
Compound: lovastatin nonaketide synthase (LovB), full-length, His-tagged, Q9Y8A5 1-3038
